Test results published in patent US8163804B2 (priority 2005, dated 2012).
Where two headings read alike, the source gives them in different places.

Key:
[1] = test system: Small Brown Planthopper (Laodelphax striatellus); assay: Insecticidal test on small brown planthopper, sprayed rice seedlings, mortality after 6 days; format: in vivo; details: for Mortality (%): 3 ppm
Protocol: Insecticidal Test on Small Brown Planthopper (Laodelphax striatellus)
A liquid chemical which was diluted and prepared to the prescribed concentration was sprayed on rice seedlings (cultivar: koshihikari), air-dried, and then 10 three-stage insects of Laodelphax striatellus were put into a glass test tube having a diameter of 3 cm and a height of 10 cm along with the seedlings. The test tube was cotton plugged. After 6 days from the treatment, the number of surviving insects was examined and the mortality was calculated (two replications of 10 insects per plot).

[2] = test system: Green Peach Aphid (Myzus persicae); format: in vivo
[3] = test system: Resistant Cotton Melon Aphid (Aphis gossypii); format: in vivo
[4] = test system: Rice Blast (Pyricularia oryzae); format: in vivo
[5] = test system: Rice Striped Stem Borer (Chilo suppressalis)
[6] = test system: Tiger Moth (Trichoplusia ni); assay: Insecticidal test on tiger moth, cabbage leaf dip, mortality after 6 days; format: in vivo; details: 6 days after treatment; for Mortality (%): 0.5 ppm
Protocol: Insecticidal Test on Tiger Moth (Trichoplusia ni)
Cut leaves of cabbages (cultivar: shiki-kaku) were immersed in a liquid chemical which was diluted and prepared to the prescribed concentration for 30 seconds, air-dried, and then put into a plastic vessel having a diameter of 9 cm. Each of 10 second-stage insects of Trichoplusia ni was inoculated and the resulting vessel was allowed to stand in an isothermal chamber maintained at 25 degree centigrade. After 6 days from the treatment, the number of surviving insects was examined and the mortality was calculated (two replications of 10 insects per plot).

[7] = test system: 2-spotted Spider Mite (Tetranychus urticae); assay: Insecticidal test on 2-spotted spider mite, kidney bean leaf disc with eggs, hatchability of larvae after 6 days; format: in vivo; details: 6 days after spraying
Protocol: Insecticidal Test on 2-spotted Spider Mite (Tetranychus urticae)
A plastic cup having a diameter of 8 cm was filled with water and covered by a lid with a hole having a diameter of 1 cm. Absorbent cotton was put on the top of the lid and dropped into water from the lid such that the absorbent cotton was always in a wet state due to a capillary phenomenon. A leaf disc having a diameter of 2 cm was prepared with primary leaves of kidney beans (cultivar: Green top) and placed on the aforementioned absorbent cotton. 4 adult female insects of Tetranychus urticae were inoculated thereon. Next day, the adult female insects were removed, and then the number of insect egg was examined. A liquid chemical which was prepared to the prescribed concentration was sprayed by using a vertical sprayer. After spraying, the resulting cup was allowed to stand in an isothermal chamber maintained at 25 degree centigrade. After 6 days from spraying, the number of hatched larvae that survived on the leaf disc was examined and the hatchability of larvae was calculated (two replications of one concentration per chemical).

[8] = test system: Rice Leafroller (Cnaphalocrocis medinalis); assay: Control test on rice leafroller, nursery box application of paddy rice, infected leaf rate after 50 days; format: in vivo; details: 1 gai/box; 50 days after transplantation
Protocol: (§1) Control Test on Small Brown Planthopper (Laodelphax striatellus) and Rice Leafroller (Cnaphalocrocis medinalis) on Nursery Box Application of Paddy Rice
(§2) Rice (cultivar: Nihonbare) cultured in a nursery box was treated with 50 g of a granule formulation per box, and then transplanted to the rice field. For the control effect against Laodelphax striatellus, the number of parasitic insects was examined for 30 stumps per plot after 40 days and 60 days from the transplantation. In addition, for the control effect against Cnaphalocrocis medinalis, the number of infected leaves was examined for 100 stumps per plot after 50 days from the transplantation, and the infected leaf rate was calculated. In the Table, gai represents the amount of active ingredients (g).

[9] = test system: Small Brown Planthopper (Laodelphax striatellus); assay: Control test on small brown planthopper, nursery box application of paddy rice, number of parasitic insects after 40 and 60 days; format: in vivo; details: 1 gai/box
Protocol: as §1, §2

[10] = test system: Sheath Blight (Rhizoctonia solani); assay: Control test on sheath blight of paddy rice, powder spray, rate of infected stumps after 30 days; format: in vivo; details: 30 days after spraying
Description: (§3) Control Test on Common Straight Swift Butterfly (Parnara guttata) and Sheath Blight (Rhizoctonia solani) of Paddy Rice
(§4) A powder of a prescribed amount was sprayed on rice (cultivar: koshihikari) after 70 days from the transplantation (middle of May) Leaves on which Parnara guttata was parasitic before spraying were eliminated. After 20 days from spraying, the number of insects was examined for 100 stumps in each plot. Furthermore, 7 days before spraying, Rhizoctonia solani cultured on a bran medium was inoculated into the base of the plant. After 30 days from spraying, the number of infected stumps was examined for 100 stumps in each plot and the rate of infected stumps was calculated. In the Table, gai represents the amount of active ingredients (g).

[11] = test system: Common Straight Swift Butterfly (Parnara guttata); assay: Control test on common straight swift butterfly of paddy rice, powder spray, number of insects after 20 days (Test Example 9); format: in vivo; details: 20 days after spraying
Description: as §3, §4

[12] = Laodelphax striatellus, 144 h, sprayed rice seedlings, 6 days after treatment
[13] = sprayed rice seedlings, 6 days after treatment
[14] = 3 ppm, foliar spray on eggplant, 5 days after spraying
[15] = 3 ppm, foliar spray on cucumber, 5 days after spraying

## CC1=NNC(=O)N(/N=C/c2cccnc2)C1 [pymetrozine]
[1]; [12]
  mortality at 25 ppm: 95%
[2]; 100 ppm, foliar spray on eggplant, 5 days after spraying
  Control rate (%): 96%
[3]; 100 ppm, foliar spray on cucumber, 5 days after spraying
  Control rate (%): 95%

## COP(=O)(NC(C)=O)SC (stereo not drawn) [acephate]
[2]; 250 ppm, foliar spray on eggplant, 5 days after spraying
  Control rate (%): 97%
[3]; 250 ppm, foliar spray on cucumber, 5 days after spraying
  Control rate (%): 0%

## Cc1cc(C(F)(C(F)(F)F)C(F)(F)F)cc(C)c1NC(=O)c1cccc(NC(=O)c2cccnc2Cl)c1 [Compound No. 106, N-(2,6-dimethyl-4-heptafluoroisopropyl)phenyl 3-[(2-chloropyridin-3-yl)carbonylamino]benzamide]
[4]; in vivo
  Pyricularia oryzae Control value: 5
[5]; 5 gai/box
  Chilo suppressalis Mortality (%): 90%

## CN(C(=O)c1ccccc1)c1cccc(C(=O)Nc2c(Br)cc(SC(F)(F)C(F)(F)C(F)(F)F)cc2Br)c1 [Compound 1126]
[6]
  Mortality (%): 70%
[1]; [13]
  Mortality (%): 10%
[7]; 50 ppm
  Hatchability of larvae (%): 73%
[2]; [14]
  Control rate (%): 0%
[3]; [15]
  Control rate (%): 3%

## CN(C(=O)c1cccc(NC(=O)c2ccccc2)c1)c1c(Br)cc(SC(F)(F)C(F)(F)C(F)(F)F)cc1Br [Compound 1480]
[6]
  Mortality (%): 75%
[1]; [13]
  Mortality (%): 10%
[7]; 50 ppm
  Hatchability of larvae (%): 85%
[2]; [14]
  Control rate (%): 7%
[3]; [15]
  Control rate (%): 3%

## CC(C)(C)c1ccc(CSc2cnn(C(C)(C)C)c(=O)c2Cl)cc1 [pyridaben]
[7]; 2 ppm
  Hatchability of larvae (%): 48%

## O=[N+]([O-])NC1=NCCN1Cc1ccc(Cl)nc1 [imidacloprid]
[8]
  Cnaphalocrocis medinalis Infected leaf rate (%): 1.77%
[9]; 40 days
  Laodelphax striatellus Number of parasitic insects/30 stumps: 0 insects/30 stumps
[9]; 60 days
  Laodelphax striatellus Number of parasitic insects/30 stumps: 9 insects/30 stumps

## CCC(C)(C)C(=O)OC1=C(c2ccc(Cl)cc2Cl)C(=O)OC12CCCCC2 [spirodiclofen]
[7]; 3 ppm
  Hatchability of larvae (%): 50%

## Cc1c(Cl)cc(-c2ccc(=O)[nH]n2)cc1Cl [diclomezine]
[10]; 48 gai/10a
  Rate of infected stumps (%): 3%
[11]; 48 gai/10a
  Number of insects (number/100 stumps): 167 number/100 stumps

## CC(C)([CH2][Sn]([CH2]C(C)(C)c1ccccc1)([CH2]C(C)(C)c1ccccc1)[O][Sn]([CH2]C(C)(C)c1ccccc1)([CH2]C(C)(C)c1ccccc1)[CH2]C(C)(C)c1ccccc1)c1ccccc1 [fenbutatin oxide]
[7]; 25 ppm
  Hatchability of larvae (%): 42%

## CN(C(=O)c1ccccc1F)c1cccc(C(=O)N(C)c2c(Br)cc(SC(F)(F)C(F)(F)C(F)(F)F)cc2Br)c1 [Compound 1617]
[6]
  Mortality (%): 75%
[1]; [13]
  Mortality (%): 5%
[7]; 50 ppm
  Hatchability of larvae (%): 78%
[2]; [14]
  Control rate (%): 0%
[3]; [15]
  Control rate (%): 5%

## CN/C(=N/CC1CCOC1)N[N+](=O)[O-] (stereo not drawn) [dinotefuran]
[6]; Trichoplusia, foliar, 144 h, 3 ppm
  mortality at 3 ppm: 40%
[1]; Laodelphax striatellus, 144 h, 5 ppm, sprayed rice seedlings, 6 days after treatment
  mortality at 5 ppm: 95%
[2]; in vivo
  Control rate (%): 99%
[3]; in vivo
  Control rate (%): 98%

## CCOc1cc(C(C)(C)C)ccc1C1COC(c2c(F)cccc2F)=N1 (stereo not drawn) [etoxazol]
[7]; 0.1 ppm
  Hatchability of larvae (%): 33%

## Cc1cc(C(F)(C(F)(F)F)C(F)(F)F)cc(C)c1NC(=O)c1cccc(N(C)C(=O)c2ccc(C#N)cc2)c1F [Compound 1217]
[4]; in vivo
  Pyricularia oryzae Control value: 7
[5]; 5 gai/box
  Chilo suppressalis Mortality (%): 90%
[6]
  Mortality (%): 65%
[1]; [13]
  Mortality (%): 15%
[7]; 50 ppm
  Hatchability of larvae (%): 74%
[2]; [14]
  Control rate (%): 21%
[3]; [15]
  Control rate (%): 15%

## O=C(Nc1ccccc1)N(Cc1ccc(Cl)cc1)C1CCCC1 [pencycuron]
[10]; 60 gai/10a
  Rate of infected stumps (%): 1%
[11]; 60 gai/10a
  Number of insects (number/100 stumps): 159 number/100 stumps

## CC(C)N1C(=O)N(c2ccccc2)CS/C1=N\C(C)(C)C [buprofezin]
[1]; [12]
  mortality at 25 ppm: 95%

## CNC(=O)/C(=N/OC)c1ccccc1CO/N=C(C)/C(=N/OC)C(/C)=N/OC [orysastrobin]
[4]; 3.5 gai/box
  Pyricularia oryzae Control value: 93
[5]; 3.5 gai/box
  Chilo suppressalis Mortality (%): 5%

## COP(=S)(OC)Oc1ccc([N+](=O)[O-])c(C)c1 [fenitrothion]
[1]; Laodelphax striatellus, 144 h
  mortality at 100 ppm: 85%
